In US20180099931A1 (AbbVie S.à.r.l., priority 2016, published 2018):
Where two headings read alike, the source gives them in different places.

Molecular target: T1, F508delCFTR (Homo sapiens, UniProt P13569, DEL508-508)
T1 construct: expressed in transfected cells; host or cells: CFBE41o- human lung-derived epithelial cells (CFBE4lo-F508delCFTR-HRP), doxycycline-inducible
Assay: Cell Surface Expression-Horse Radish Peroxidase (CSE-HRP) Assay;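 as to Maximum % activity (with co-corrector): co-corrector and positive control are both the same reference corrector at 2 µM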;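 as to Maximum % activity (without co-corrector): percent of the 2 µM on-plate positive control corrector response above DMSO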
Assay type: cell-based
Settings: CSE-HRP; for Maximum % activity (with co-corrector): with co-corrector (2 μM); for Maximum % activity (with co-corrector) / Emax: maximum at any tested concentration, normalized to on-plate positive control; for Emax: without co-corrector, read-out: Maximum % activity (without co-corrector)

[1] = test compound without co-corrector, read-out: EC50 (without co-corrector)
[2] = with co-corrector (2 μM of 3-[(2R,4R)-4-({[1-(2,2-difluoro-1,3-benzodioxol-5-yl)cyclopropyl]carbonyl}amino)-7-methoxy-3,4-dihydro-2H-chromen-2-yl]benzoic acid), read-out: EC50 (with co-corrector)

T1 sequence (P13569 with tags, fused parts or gaps DEL508-508): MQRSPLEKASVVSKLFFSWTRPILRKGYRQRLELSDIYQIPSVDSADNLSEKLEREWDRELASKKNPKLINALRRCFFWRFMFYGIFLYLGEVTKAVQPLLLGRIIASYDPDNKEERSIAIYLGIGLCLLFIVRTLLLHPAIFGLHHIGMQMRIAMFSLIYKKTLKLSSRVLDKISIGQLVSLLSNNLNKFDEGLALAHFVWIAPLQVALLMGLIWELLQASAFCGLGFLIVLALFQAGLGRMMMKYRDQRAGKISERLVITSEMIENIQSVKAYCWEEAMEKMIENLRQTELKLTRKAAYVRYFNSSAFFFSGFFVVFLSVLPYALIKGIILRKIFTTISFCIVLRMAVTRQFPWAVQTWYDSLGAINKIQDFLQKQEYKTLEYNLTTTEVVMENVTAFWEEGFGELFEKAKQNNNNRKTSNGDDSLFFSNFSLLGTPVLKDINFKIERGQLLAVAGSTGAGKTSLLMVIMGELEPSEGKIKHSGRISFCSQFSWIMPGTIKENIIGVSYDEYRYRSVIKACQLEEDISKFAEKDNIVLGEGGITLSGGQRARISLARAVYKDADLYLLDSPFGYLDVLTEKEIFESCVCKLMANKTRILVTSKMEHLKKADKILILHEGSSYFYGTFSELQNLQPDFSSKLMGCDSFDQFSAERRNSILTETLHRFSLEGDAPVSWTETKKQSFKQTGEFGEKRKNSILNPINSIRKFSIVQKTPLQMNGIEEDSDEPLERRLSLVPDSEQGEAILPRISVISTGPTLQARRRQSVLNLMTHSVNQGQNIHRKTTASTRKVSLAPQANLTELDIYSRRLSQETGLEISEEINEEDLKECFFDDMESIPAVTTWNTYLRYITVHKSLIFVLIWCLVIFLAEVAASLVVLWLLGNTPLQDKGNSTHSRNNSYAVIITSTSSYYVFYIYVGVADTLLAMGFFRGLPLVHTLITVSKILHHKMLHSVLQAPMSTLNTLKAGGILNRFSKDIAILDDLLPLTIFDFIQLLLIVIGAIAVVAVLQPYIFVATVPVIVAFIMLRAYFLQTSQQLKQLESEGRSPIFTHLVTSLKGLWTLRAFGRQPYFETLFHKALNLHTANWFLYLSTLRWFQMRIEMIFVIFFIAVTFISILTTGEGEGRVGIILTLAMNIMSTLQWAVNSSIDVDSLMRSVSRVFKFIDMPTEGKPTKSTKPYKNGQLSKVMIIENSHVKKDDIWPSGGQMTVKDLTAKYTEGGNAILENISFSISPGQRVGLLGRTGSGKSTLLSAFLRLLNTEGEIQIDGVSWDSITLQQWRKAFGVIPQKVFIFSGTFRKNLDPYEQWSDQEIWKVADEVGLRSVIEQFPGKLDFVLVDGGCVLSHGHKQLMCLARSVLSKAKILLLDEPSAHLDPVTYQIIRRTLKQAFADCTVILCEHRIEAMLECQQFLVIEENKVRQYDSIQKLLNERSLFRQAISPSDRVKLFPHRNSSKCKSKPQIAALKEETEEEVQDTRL

| SMILES | EC50 [1] [µM] | EC50 [2] [µM] | Maximum % activity (with co-corrector) | Emax [%] |
| --- | --- | --- | --- | --- |
| CC(C)(C)[C@H]1[C@H](Nc2cc(C(F)(F)F)cc(C(F)(F)F)c2)[C@H](c2ccccc2)N(C(=O)C2CCCCC2)[C@@H]1C(=O)O [II-148] | < 1 | < 1 | +++ (≥350) | 100 to 200 |
| COc1cc(C(F)(F)F)ccc1CN[C@H]1[C@H](C(C)(C)OC)[C@@H](C(=O)O)N(C(=O)C2CCCCC2)[C@H]1c1ccccc1 [II-150] | 1 to 10 | < 1 | +++ (≥350) | > 200 |
| COc1cc(C(F)(F)F)ccc1CN[C@H]1[C@H](C(C)(C)C)[C@@H](C(=O)O)N(C(=O)c2ccccc2)[C@H]1c1ccccc1 [II-152] | 1 to 10 | 1 to 10 | +++ (≥350) | < 100 |
| COc1ccc(C(C)(C)C)cc1CN[C@H]1[C@H](C(C)(C)C)[C@@H](C(=O)O)N(C(=O)C2CCCCS2(=O)=O)[C@H]1c1ccccc1 (stereo partly drawn) [II-153] | 1 to 10 | 1 to 10 | +++ (≥350) | > 200 |
| COc1ccc(C(C)(C)C)cc1CN[C@H]1[C@H](C(C)(C)C)[C@@H](C(=O)O)N(S(=O)(=O)c2ccn(C)n2)[C@H]1c1ccccc1 [II-154] | 1 to 10 | 1 to 10 | +++ (≥350) | 100 to 200 |
| COc1ccc(C(F)(F)F)cc1CN[C@H]1[C@H](C(C)(C)C)[C@@H](C(=O)O)N(S(=O)(=O)c2ccccc2)[C@H]1c1ccccc1 [II-155] | 1 to 10 | 1 to 10 | ++ (≥150 and <350) | < 100 |
| COc1ccc(C(F)(F)F)cc1CN[C@H]1[C@H](C(C)(C)C)[C@@H](C(=O)O)N(C(=O)C2COc3ccccc3O2)[C@H]1c1ccccc1 (stereo partly drawn) [II-156] | 1 to 10 | 1 to 10 | ++ (≥150 and <350) | < 100 |
| COc1ncc(C(C)C)cc1CN[C@H]1[C@H](C(C)(C)C)[C@@H](C(=O)O)N(C(=O)C2CCCCC2)[C@H]1c1ccccc1 [II-157] | 1 to 10 | < 1 | +++ (≥350) | > 200 |
| COc1ncc(Br)cc1CN[C@H]1[C@H](C(C)(C)C)[C@@H](C(=O)O)N(C(=O)C2CCCCC2)[C@H]1c1ccccc1 [II-158] | < 1 | < 1 | +++ (≥350) | 100 to 200 |
| COC(=O)[C@H](C)Cc1cnc(OC)c(CN[C@H]2[C@H](C(C)(C)C)[C@@H](C(=O)O)N(C(=O)C3CCCCC3)[C@H]2c2ccccc2)c1 [II-159] | 1 to 10 | 1 to 10 | ++ (≥150 and <350) | < 100 |
| COc1ccc(-c2ccccc2)cc1CN[C@H]1[C@H](C(C)(C)C)[C@@H](C(=O)O)N(C(=O)OC(C)C)[C@H]1c1ccccc1 [II-160] | 1 to 10 | < 1 | +++ (≥350) | > 200 |
| COc1cc(C(F)(F)F)ccc1CN[C@H]1[C@H](C(C)(C)C)[C@@H](C(=O)O)N(C(=O)OCC(C)C)[C@H]1c1ccccc1 [II-161] | 1 to 10 | < 1 | +++ (≥350) | 100 to 200 |
| COc1ccc(C(C)(C)C)cc1CN[C@H]1[C@H](C(C)(C)C)[C@@H](C(=O)O)N(C(=O)CC2CCOCC2)[C@H]1c1ccccc1 [II-162] | 1 to 10 | 1 to 10 | +++ (≥350) | 100 to 200 |
| COc1ccc(C(F)(F)F)cc1CN[C@H]1[C@H](C(C)(C)C)[C@@H](C(=O)O)N(C(=O)C2CCc3ccccc3O2)[C@H]1c1ccccc1 (stereo partly drawn) [II-163] | 1 to 10 | < 1 | +++ (≥350) | < 100 |
| COc1ccc(C(C)(C)C)cc1CN[C@H]1[C@H](C(C)(C)C)[C@@H](C(=O)O)N(C(=O)C2OCCc3ccccc32)[C@H]1c1ccccc1 (stereo partly drawn) [II-165] | 1 to 10 | < 1 | +++ (≥350) | > 200 |
| CC(C)c1ccccc1CN[C@H]1[C@H](C(C)(C)C)[C@@H](C(=O)O)N(C(=O)C2CCCCC2)[C@H]1c1ccccc1 [II-166] | < 1 | < 1 | +++ (≥350) | 100 to 200 |
| CC(C)(C)[C@H]1[C@H](NC2CCOc3ccc(Cl)cc32)[C@H](c2ccccc2)N(C(=O)C2CCCCC2)[C@@H]1C(=O)O (stereo partly drawn) [II-167] | 1 to 10 | 1 to 10 | ++ (≥150 and <350) | < 100 |
| COc1ccc(C(C)C)cc1CN[C@H]1[C@H](C(C)(C)C)[C@@H](C(=O)O)N(C(=O)C2CCCCC2)[C@H]1c1ccccc1 [II-168] | 1 to 10 | < 1 | +++ (≥350) | > 200 |
| COc1ccc(C(C)C)cc1CN[C@H]1[C@H](C(C)(C)C)[C@@H](C(=O)O)N(C(=O)OC(C)C)[C@H]1c1ccccc1 [II-169] | 1 to 10 | 1 to 10 | +++ (≥350) | > 200 |
| COc1ncc(Br)cc1CN[C@H]1[C@H](C(C)(C)C)[C@@H](C(=O)O)N(C(=O)OC(C)C)[C@H]1c1ccccc1 [II-170] | 1 to 10 | 1 to 10 | +++ (≥350) | > 200 |
| COc1ccc(Br)cc1CN[C@H]1[C@H](C(C)(C)C)[C@@H](C(=O)O)N(C(=O)OC(C)C)[C@H]1c1ccccc1 [II-171] | 1 to 10 | 1 to 10 | +++ (≥350) | > 200 |
| CCn1c(C)c(CC(=O)N2[C@H](C(=O)O)[C@@H](C(C)(C)C)[C@H](NCc3cc(C(C)(C)C)ccc3OC)[C@@H]2c2ccccc2)c2ccccc21 [II-172] | 1 to 10 | < 1 | +++ (≥350) | > 200 |
| COc1ccc(C(C)(C)C)cc1CN[C@H]1[C@H](C(C)(C)C)[C@@H](C(=O)O)N(C(=O)[C@H]2C[C@H](CCC#N)C[C@H]2C)[C@H]1c1ccccc1 [II-173] | 1 to 10 | 1 to 10 | +++ (≥350) | > 200 |
| COc1ccc(C(C)(C)C)cc1CN[C@H]1[C@H](C(C)(C)C)[C@@H](C(=O)O)N(C(=O)C2CC(C)CCO2)[C@H]1c1ccccc1 (stereo partly drawn) [II-174] | 1 to 10 | 1 to 10 | +++ (≥350) | > 200 |
| COc1ccc(C(C)(C)C)cc1CN[C@H]1[C@H](C(C)(C)C)[C@@H](C(=O)O)N(C(=O)C2CCC(C#N)CC2)[C@H]1c1ccccc1 (stereo partly drawn) [II-175] | 1 to 10 | 1 to 10 | +++ (≥350) | 100 to 200 |
| COc1ccc(C(C)(C)C)cc1CN[C@H]1[C@H](C(C)(C)C)[C@@H](C(=O)O)N(C(=O)CC2CCC(C)(C)OC2)[C@H]1c1ccccc1 (stereo partly drawn) [II-176] | 1 to 10 | 1 to 10 | +++ (≥350) | 100 to 200 |
| COc1ccc(C(C)(C)C)cc1CN[C@H]1[C@H](C(C)(C)C)[C@@H](C(=O)O)N(C(=O)CC23CC(C2)C3)[C@H]1c1ccccc1 [II-177] | 1 to 10 | < 1 | +++ (≥350) | > 200 |
| COc1ccc(C(C)(C)C)cc1CN[C@H]1[C@H](C(C)(C)C)[C@@H](C(=O)O)N(C(=O)C[C@H]2OCCc3ccccc32)[C@H]1c1ccccc1 [II-178] | 1 to 10 | < 1 | +++ (≥350) | > 200 |
| COc1ccc(C(C)(C)C)cc1CN[C@H]1[C@H](C(C)(C)C)[C@@H](C(=O)O)N(C(=O)CC2CCCOC2)[C@H]1c1ccccc1 (stereo partly drawn) [II-179] | 1 to 10 | 1 to 10 | +++ (≥350) | > 200 |
| COc1ccc(C(C)(C)C)cc1CN[C@H]1[C@H](C(C)(C)C)[C@@H](C(=O)O)N(C(=O)Cc2ccccc2)[C@H]1c1ccccc1 [II-180] | 1 to 10 | < 1 | +++ (≥350) | > 200 |
